Source: PMC8434415, “Chromone Derivatives with α-Glucosidase Inhibitory Activity from the Marine Fungus Penicillium thomii Maire” (Molecules, 2021)

Columns and labels:
α-glucosidase = tested on: α-glucosidase; design: method as in PMID 25044593; settings: cited from earlier work
[1] = target: T1, α-glucosidase from Saccharomyes cerevisiae (Saccharomyces cerevisiae, UniProt P53341); assay: α-glucosidase inhibitory assay (PNPG substrate); assay type: biochemical; settings: for inhibition at 667 µM: compound at 667 μM; for IC50: tested between 0.2 and 2 mM, three replicates
T1 construct: purchased Sigma-Aldrich (St. Louis, MO, USA)
T1 sequence (P53341 whole entry): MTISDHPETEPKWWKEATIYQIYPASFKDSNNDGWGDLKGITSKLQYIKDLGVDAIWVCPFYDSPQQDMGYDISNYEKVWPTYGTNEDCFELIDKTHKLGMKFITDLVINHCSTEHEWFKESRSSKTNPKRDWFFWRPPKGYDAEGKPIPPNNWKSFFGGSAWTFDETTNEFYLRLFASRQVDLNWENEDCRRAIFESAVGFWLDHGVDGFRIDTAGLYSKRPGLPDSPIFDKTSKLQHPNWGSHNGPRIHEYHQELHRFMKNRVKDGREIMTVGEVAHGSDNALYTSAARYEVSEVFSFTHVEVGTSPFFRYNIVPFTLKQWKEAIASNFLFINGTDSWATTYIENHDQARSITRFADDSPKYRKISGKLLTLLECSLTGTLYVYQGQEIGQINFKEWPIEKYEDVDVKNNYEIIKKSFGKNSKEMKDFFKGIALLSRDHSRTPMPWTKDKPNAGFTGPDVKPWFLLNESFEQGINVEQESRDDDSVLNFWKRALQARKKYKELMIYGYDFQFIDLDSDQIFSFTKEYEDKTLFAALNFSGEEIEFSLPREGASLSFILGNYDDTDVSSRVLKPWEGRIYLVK
Protocol: The α-glucosidase inhibitory effect was performed as follows. The 0.2 U of α-glucosidase from Saccharomyes cerevisiae, purchased from Sigma-Aldrich (St. Louis, MO, USA), was diluted to 0.067 M phosphate buffer consisting of Na2HPO4·12H2O and KH2PO4 (pH 6.8). The assay was conducted in a 60 μL reaction system containing 20 μL of diluted enzyme solution and 20 μL of DMSO or sample (dissolved in DMSO). After 10 min of incubation in the 96-well plates at 37 °C, 20 μL of 4 mM PNPG (4-nitrophenyl-α-D-glucopyranoside, Aladdin, Shanghai, China) was added as substrate to start the enzymatic reaction. The plate was incubated for an additional 20 min at 37 °C, and the reaction was quenched by adding 60 μL of 0.2 M Na2CO3. The final concentrations of tested compounds were between 0.2 and 2 mM. The optical density (OD) was measured at an absorbance wavelength of 405 nm using a Microplate Reader (Tecan, Switzerland). […] Percent inhibition was calculated by the following equation: Inhibition (%) = ((Absorbance of control − Absorbance of test)/Absorbance of control)); IC50 concentrations are calculated using concentration vs. percent inhibition values.

[2] = DPPH radical scavenging (antioxidant) test; settings: for Antioxidant % Inhibition (1000 μM): compound at 1000 μM
Protocol: The DPPH scavenging was assayed following the procedures in our recent published paper. The DPPH radical scavenging test was performed in 96-well microplates. Then, 20 μL of samples at a concentration of 10 mM in MeOH were added to 180 μL (150 μmol/L) DPPH solution. After 30 min of light avoidance, absorbance at 517 nm using a Microplate Reader (Tecan, Switzerland) was measured and the percentage of activity was calculated. All assays were performed in three replicates, and vitamin C was used as a positive control. Percent inhibition was calculated by the following equation: Inhibition (%) = ((Absorbance of control − Absorbance of test)/Absorbance of control)); IC50 concentrations are calculated using concentration vs. percent inhibition values.

[3] = tested on: several carcinoma cell lines; settings: cited from earlier work
liver X receptor α = target: liver X receptor α; design: method as in PMID 33932772; settings: read-out: dissociation equilibrium constant; cited from earlier work

Compound | inhibition at 667 µM [1] [%] | Antioxidant % Inhibition (1000 μM) [2] [%] | further results
COc1cc(OC)c2c(=O)cc(CCCC(=O)O)oc2c1 [4-(5,7-dimethoxy-4-oxo-4H-chromen-2-yl)butanoic acid] | – | – | inhibitory activity on α-glucosidase (in words) (α-glucosidase): moderate inhibitory activity
C[C@H]1O[C@H](O[C@H]2[C@H](O)[C@@H](O)[C@@H](O[C@H]3[C@H](O)[C@@H](O)C(O)O[C@@H]3CO)O[C@@H]2CO)[C@H](O)[C@@H](O)[C@@H]1N[C@H]1C=C(CO)[C@@H](O)[C@H](O)[C@H]1O (some centres unmarked) [Acarbose, acarbose, reference compound] | 27.7 | – | –
COc1cc(O)c2c(=O)cc(CCC[C@@H]3CCC(=O)O3)oc2c1 [Compound 1, Penithochromone M] | -3.43 | 7.24 | –
O=C(O)CCCCC(O)Cc1cc(=O)c2c(O)cc(O)cc2o1 (centres unmarked) [Compound 2, Penithochromone N] | 15.1 | 35.7 | IC50 [2]: 1970 ± 156 µM
COC(=O)CCCCC(O)Cc1cc(=O)c2c(O)cc(OC)cc2o1 (centres unmarked) [Compound 3, Penithochromone O] | 23.8 | 20.4 | –
COc1cc(OC)c2c(=O)cc(CCCCC(O)CC(=O)O)oc2c1 (centres unmarked) [Compound 4, Penithochromone P] | -9.72 | 12.2 | –
COC(=O)CC(O)CCCCc1cc(=O)c2c(OC)cc(OC)cc2o1 (centres unmarked) [Compound 5, Penithochromone Q] | 1.41 | 11.2 | –
O=C(O)CC(O)CCCCc1cc(=O)c2c(O)cc(O)cc2o1 (centres unmarked) [Compound 6, Penithochromone R] | 27.3 | 33.8 | IC50 [1]: 842 ± 11 µM
COc1cc(O)c2c(=O)cc(CC(O)CCCCCCC(=O)O)oc2c1 (centres unmarked) [Compound 7, Penithochromone S] | 25.2 | 23.6 | IC50 [1]: 917 ± 8 µM
COc1cc(O)c2c(=O)cc(CC(O)CCCC/C=C/C(=O)O)oc2c1 (centres unmarked) [Compound 8, Penithochromone T] | 41.7 | 19.3 | IC50 [1]: 1020 ± 22 µM
COc1cc(O)c2c(=O)cc(CCCCCCC(=O)O)oc2c1 [Compound 9, penithochromone C] | 40.2 | 18.1 | IC50 [1]: 688 ± 24 µM
O=C(O)CCCCCCc1cc(=O)c2c(O)cc(O)cc2o1 [Compound 10, penithochromone A] | 74.7 | 21.8 | IC50 [1]: 268 ± 25 µM
O=C1O[C@H]([C@@H](O)CO)C(O)=C1O [Vitamin C, vitamin C, reference compound] | – | 96.4 | IC50 [2]: 26.7 µM
COC(=O)[C@H](O)C[C@](O)(C(=O)OC)[C@@H]1Cc2c(oc3cc(C)cc(O)c3c2=O)S1 [oxalicumone A, oxalicumones A] | – | – | IC50 [3]: < 10 µM
COC(=O)[C@H](O)C[C@](O)(C(=O)OC)[C@H]1Cc2c(oc3cc(C)cc(O)c3c2=O)S1 [oxalicumone B, oxalicumones B] | – | – | IC50 [3]: < 10 µM
COC(=O)C(O)(C[C@@H](O)C(=O)O)[C@@H]1Cc2c(oc3cc(C)cc(O)c3c2=O)S1 (some centres unmarked) [oxalicumone D, oxalicumones D] | – | – | IC50 [3]: < 10 µM
COC(=O)CC(O)(C(=O)OC)[C@@H]1Cc2c(oc3cc(C)cc(O)c3c2=O)S1 (some centres unmarked) [oxalicumone E, oxalicumones E] | – | – | IC50 [3]: < 10 µM
Pestalotiochromone A | – | – | Kd (liver X receptor α): 6.2 µM
